According to paper PMC4589357, “The Role of Electrostatic Interactions in Binding of Histone H3K4me2/3 to the Sgf29 Tandem Tudor Domain” (PLoS ONE, 2015):
“And” between values parts separate entries of the source, which are not always exact repeats. Equal values may be shown once.

Experiments:
Sgf29 D266F = molecular target: T1, Sgf29 D266F (Homo sapiens, UniProt Q96ES7, D266F); test: ITC binding of histone peptides to Sgf29 D266F
T1 construct: 6xHis (cleaved yes); made in house; host or cells: E. coli Rosetta BL21 DE3 PlysS
T1 sequence (Q96ES7 115-293 D266F): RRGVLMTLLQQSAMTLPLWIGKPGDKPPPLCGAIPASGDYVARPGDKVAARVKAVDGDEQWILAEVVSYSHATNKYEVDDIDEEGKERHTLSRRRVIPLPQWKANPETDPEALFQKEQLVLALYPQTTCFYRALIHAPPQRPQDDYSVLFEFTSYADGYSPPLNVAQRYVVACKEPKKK

Sgf29 D266Y = molecular target: T2, Sgf29 D266Y (Homo sapiens, UniProt Q96ES7, D266Y); test: ITC binding of histone peptides to Sgf29 D266Y
T2 construct: 6xHis (cleaved yes); made in house; host or cells: E. coli Rosetta BL21 DE3 PlysS
T2 sequence (Q96ES7 115-293 D266Y): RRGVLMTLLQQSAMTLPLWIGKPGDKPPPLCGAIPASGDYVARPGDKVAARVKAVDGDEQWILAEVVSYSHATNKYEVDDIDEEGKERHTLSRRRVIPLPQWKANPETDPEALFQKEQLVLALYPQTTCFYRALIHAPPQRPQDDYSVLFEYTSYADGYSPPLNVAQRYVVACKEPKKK

Sgf29 Y238F = molecular target: T3, Sgf29 Y238F (Homo sapiens, UniProt Q96ES7, Y238F); test: ITC binding of histone peptides to Sgf29 Y238F
T3 construct: 6xHis (cleaved yes); made in house; host or cells: E. coli Rosetta BL21 DE3 PlysS
T3 sequence (Q96ES7 115-293 Y238F): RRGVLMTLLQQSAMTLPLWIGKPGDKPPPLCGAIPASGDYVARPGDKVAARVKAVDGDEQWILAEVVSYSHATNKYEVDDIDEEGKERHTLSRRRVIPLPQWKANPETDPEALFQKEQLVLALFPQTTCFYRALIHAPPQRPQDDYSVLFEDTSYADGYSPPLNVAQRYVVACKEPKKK

Sgf29 Y245F = molecular target: T4, Sgf29 Y245F (Homo sapiens, UniProt Q96ES7, Y245F); test: ITC binding of histone peptides to Sgf29 Y245F
T4 construct: 6xHis (cleaved yes); made in house; host or cells: E. coli Rosetta BL21 DE3 PlysS
T4 sequence (Q96ES7 115-293 Y245F): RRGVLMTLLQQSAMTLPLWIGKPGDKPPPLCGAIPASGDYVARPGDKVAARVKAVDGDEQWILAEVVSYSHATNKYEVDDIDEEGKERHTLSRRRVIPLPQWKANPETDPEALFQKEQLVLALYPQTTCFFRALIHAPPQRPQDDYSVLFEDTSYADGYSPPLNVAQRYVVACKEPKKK

Sgf29 D266A = molecular target: T5, Sgf29 D266A (Homo sapiens, UniProt Q96ES7, D266A); test: ITC binding of histone peptides to Sgf29 D266A
T5 construct: 6xHis (cleaved yes); made in house; host or cells: E. coli Rosetta BL21 DE3 PlysS
T5 sequence (Q96ES7 115-293 D266A): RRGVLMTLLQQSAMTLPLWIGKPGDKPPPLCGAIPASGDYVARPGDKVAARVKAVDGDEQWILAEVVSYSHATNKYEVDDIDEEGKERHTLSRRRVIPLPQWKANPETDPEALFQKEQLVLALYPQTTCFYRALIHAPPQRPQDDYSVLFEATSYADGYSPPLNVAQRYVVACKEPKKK

[1] = molecular target: T6, tandem tudor domain of Sgf29, WT (Homo sapiens, UniProt Q96ES7); test: ITC binding of histone peptides to WT Sgf29
T6 construct: 6xHis (cleaved yes); made in house; host or cells: E. coli Rosetta BL21 DE3 PlysS
T6 sequence (Q96ES7 115-293): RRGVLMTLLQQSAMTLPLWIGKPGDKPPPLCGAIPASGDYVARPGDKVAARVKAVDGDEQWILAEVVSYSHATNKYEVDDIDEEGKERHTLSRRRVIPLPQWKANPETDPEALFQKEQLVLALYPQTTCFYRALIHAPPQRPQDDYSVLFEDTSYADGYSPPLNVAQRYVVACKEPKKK

Sgf29 D266N = molecular target: T7, Sgf29 D266N (Homo sapiens, UniProt Q96ES7, D266N); test: ITC binding of histone peptides to Sgf29 D266N
T7 construct: 6xHis (cleaved yes); made in house; host or cells: E. coli Rosetta BL21 DE3 PlysS
T7 sequence (Q96ES7 115-293 D266N): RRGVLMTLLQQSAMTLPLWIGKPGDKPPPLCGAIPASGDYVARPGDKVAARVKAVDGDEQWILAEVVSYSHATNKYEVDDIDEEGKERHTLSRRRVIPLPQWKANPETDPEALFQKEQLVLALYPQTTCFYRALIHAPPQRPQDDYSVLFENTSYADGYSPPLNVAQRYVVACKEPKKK

Sgf29 D266W = molecular target: T8, Sgf29 D266W (Homo sapiens, UniProt Q96ES7, D266W); test: ITC binding of histone peptides to Sgf29 D266W
T8 construct: 6xHis (cleaved yes); made in house; host or cells: E. coli Rosetta BL21 DE3 PlysS
T8 sequence (Q96ES7 115-293 D266W): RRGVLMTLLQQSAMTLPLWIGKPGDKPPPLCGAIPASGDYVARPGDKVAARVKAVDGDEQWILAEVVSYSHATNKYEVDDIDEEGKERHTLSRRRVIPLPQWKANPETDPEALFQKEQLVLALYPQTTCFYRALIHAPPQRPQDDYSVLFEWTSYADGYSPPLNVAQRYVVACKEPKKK

Sgf29 D266E = molecular target: T9, Sgf29 D266E (Homo sapiens, UniProt Q96ES7, D266E); test: ITC binding of histone peptides to Sgf29 D266E
T9 construct: 6xHis (cleaved yes); made in house; host or cells: E. coli Rosetta BL21 DE3 PlysS
T9 sequence (Q96ES7 115-293 D266E): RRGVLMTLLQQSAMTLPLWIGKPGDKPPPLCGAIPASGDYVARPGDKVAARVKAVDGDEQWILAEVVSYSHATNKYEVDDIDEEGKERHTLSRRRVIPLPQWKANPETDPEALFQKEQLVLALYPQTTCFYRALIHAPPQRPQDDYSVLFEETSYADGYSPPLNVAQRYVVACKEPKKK

[2] = D266F, TRIS pH 8.0, ± SD (2–4 repeats)
[3] = D266Y, TRIS pH 8.0, ± SD (2–4 repeats)
[4] = Y238F, TRIS pH 8.0, ± SD (2–4 repeats)
[5] = Y245F, TRIS pH 8.0, ± SD (2–4 repeats)
[6] = D266A, TRIS pH 8.0, ± SD (2–4 repeats)
[7] = WT Sgf29, TRIS pH 8.0, ± SD (2–4 repeats)
[8] = D266N, TRIS pH 8.0, ± SD (2–4 repeats)
[9] = D266E, TRIS pH 8.0, ± SD (2–4 repeats)

Q: Which results are given for C[C@H](N)C(=O)N[C@@H](CCCNC(=N)N)C(=O)N[C@H](C(=O)N[C@@H](CCCC[N+](C)(C)C)C(=O)N[C@@H](CCC(N)=O)C(=O)N[C@H](C(=O)N[C@@H](C)C(=O)N[C@@H](CCCNC(=N)N)C(=O)N[C@@H](CCCCN)C(=O)N[C@@H](CO)C(N)=O)[C@@H](C)O)[C@@H](C)O [H3K4me3]?
A: decrease in ΔH° (Sgf29 D266F; D266F relative to WT Sgf29): 4.6 kcal/mol; more favorable -TΔS° (difference) (Sgf29 D266F; D266F relative to WT Sgf29): 3.1 kcal/mol; reduction in binding affinity (Sgf29 D266F; D266F relative to WT Sgf29): 14 fold; -TΔS° (Sgf29 D266F; [2]): -2.5 ± 0.1 kcal/mol; ΔG° (Sgf29 D266F; [2]): -5.9 ± 0.1 kcal/mol; ΔH° (Sgf29 D266F; [2]): -3.4 ± 0.2 kcal/mol; decrease in enthalpy (Sgf29 D266Y; D266Y relative to WT Sgf29): 3.3 kcal/mol; increase in entropy (Sgf29 D266Y; D266Y relative to WT Sgf29): about 2.1 kcal mol^-1; -TΔS° (Sgf29 D266Y; [3]): -1.4 ± 0.3 kcal/mol; ΔG° (Sgf29 D266Y; [3]): -6.2 ± 0.1 kcal/mol; ΔH° (Sgf29 D266Y; [3]): -4.8 ± 0.2 kcal/mol; thermodynamic profile (in words) (Sgf29 Y238F; Y238F variants with altered or similar CD spectra, compared to WT Sgf29): indistinguishable thermodynamic profiles; -TΔS° (Sgf29 Y238F; [4]): 0.7 ± 0.1 kcal/mol; ΔG° (Sgf29 Y238F; [4]): -7.4 ± 0.1 kcal/mol; ΔH° (Sgf29 Y238F; [4]): -8.1 ± 0.1 kcal/mol; reduced binding affinity (Sgf29 Y245F; Y245F relative to WT Sgf29): 4.5 fold; -TΔS° (Sgf29 Y245F; [5]): -0.7 ± 0.1 kcal/mol; ΔG° (Sgf29 Y245F; [5]): -6.6 ± 0.1 kcal/mol; ΔH° (Sgf29 Y245F; [5]): -5.9 ± 0.1 kcal/mol; more unfavorable ΔH° (difference) (Sgf29 D266A; D266A relative to WT Sgf29): 1.7 kcal/mol; reduction in binding affinity (Sgf29 D266A; D266A relative to WT Sgf29): 8 fold; -TΔS° (Sgf29 D266A; [6]): 0.1 ± 0.1 kcal/mol; ΔG° (Sgf29 D266A; [6]): -6.3 ± 0.1 kcal/mol; ΔH° (Sgf29 D266A; [6]): -6.4 ± 0.1 kcal/mol; -TΔS° less favorable relative to Sgf29-H3K4me2, by ([1]; H3K4me3 vs H3K4me2, WT Sgf29): 0.7 kcal/mol; ΔH° more favorable relative to Sgf29-H3K4me2, by ([1]; H3K4me3 vs H3K4me2, WT Sgf29): 0.9 kcal/mol; -TΔS° [1, 7]: 0.6 kcal/mol and 0.6 ± 0.2 kcal/mol; ΔG° [1, 7]: -7.5 ± 0.1 kcal/mol; ΔH° [1, 7]: -8.1 kcal/mol and -8.1 ± 0.2 kcal/mol; decrease in binding affinity (Sgf29 D266N; D266N relative to WT Sgf29): 8 fold; increase in entropy / -TΔS° (Sgf29 D266N; D266N relative to WT Sgf29): 0.7 kcal/mol; -TΔS° (Sgf29 D266N; [8]): -0.1 ± 0.1 kcal/mol; ΔG° (Sgf29 D266N; [8]): -6.3 kcal/mol and -6.3 ± 0.1 kcal/mol; ΔH° (Sgf29 D266N; [8]): -6.2 ± 0.1 kcal/mol; binding (in words) (Sgf29 D266W): abrogated; binding affinity (in words) (Sgf29 D266E; D266E relative to WT Sgf29): virtually indistinguishable binding affinities; -TΔS° (Sgf29 D266E; [9]): 1.6 ± 0.1 kcal/mol; ΔG° (Sgf29 D266E; [9]): -7.4 ± 0.1 kcal/mol; ΔH° (Sgf29 D266E; [9]): -9.0 ± 0.1 kcal/mol
